Measured values reported in patent US20260250325A1, “Antiviral Polypeptide Membrane Fusion Inhibitor, and Preparation Method and Application Thereof” (priority 2025, published 2026).
Where a SMILES comes first, the peptide text is derived from it. The star is where a group is joined. Succinyl(4-O-cholesteryl) = CC(C)CCC[C@@H](C)[C@H]1CC[C@H]2[C@@H]3CC=C4C[C@@H](OC(=O)CCC(=O)*)CC[C@]4(C)[C@H]3CC[C@]12C; X1 = CC(C)CCCC(C)C1CCC2C3CC=C4CC(OC(=O)CCC(=O)*)CCC4(C)C3CCC12C

Legend:
[1] = Cytotoxicity test in HEp-2 cells (CCK8 cell viability); type: cell-based; settings: human; HEp-2 cells, CCK8, 1 day; read-out: CC50
How it was run: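 HEp-2 cells seeded at 30,000/well, cultured overnight at 37° C./5% CO2, then exposed to diluted compound for 1 day in 0.5% DMSO. Viability read by CCK8, normalised to untreated-cell and medium-only controls; CC50 from four-parameter variable-slope fit.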

[2] = test system: hPIV3 C243 virus strain; type: cell-based, hPIV; settings: LLC-MK2 cells, hPIV3 C243, plaque reduction; read-out: EC50 against hPIV3 virus
Procedure: Rhesus monkey kidney cells (LLC-MK2) were sourced from the ATCC, with a catalog number CCL-7.1. The cells were cultured in a DMEM culture solution in which 10% fetal bovine serum, 1% non-essential amino acids, 1% sodium pyruvate, 1% L-glutamine, 100 U/ml penicillin, and 100 μg/ml streptomycin were added.
An HPIV-3 plaque experiment culture medium consisted of a DMEM culture solution added with 2% fetal bovine serum, 1% non-essential amino acids, 1% sodium pyruvate, 1% L-glutamine, 100 U/ml penicillin, and 100 μg/ml streptomycin.
The hPIV Type 3 (hPIV3 C243) was sourced from the ATCC, with a catalog number VR-93.
This study used the plaque reduction experiment to detect the in-vitro activity of the test sample against the hPIV3 C243 virus strain, and Human Anti-HPIV3 Monoclonal Antibody, clone PIA174 was an experimental system control. The test sample and a system experimental antibody were tested at 8 concentrations in duplicated wells.
The LLC-MK2 cells were digested with trypsin and then diluted to a concentration of 400,000 cells per milliliter by using a cell culture solution containing 2% serum. The diluted cells were added to a 96-well cell test board, with 100 μL per well, corresponding to 40,000 cells per well. The cells were cultured overnight in a 37° C. incubator with 5% CO2.
On the next day, the sample diluted at a fold ratio and an equal volume of virus (approximately 200 PFU per well) were well mixed and incubated at 37° C. in 5% CO2 for 1 hour. Then, the culture solution in the 96-well cell test board was discarded, the sample virus mixed solution (100 μL) was added to the 96-well cell culture plate, and incubated at 37° C. in 5% CO2 for 2 hours. After 2 h, the sample virus mixed solution was discarded, 200 μL of an experiment culture medium containing the test sample with a corresponding concentration was added, and the culture solution contained 0.8% CMC. A final concentration of DMSO in the culture solution was 0.5%. A control antibody was directly added to the experiment culture solution containing 0.8% CMC. A cell control (cells, without compound treatment or viral infection) and a viral control (cell infection virus, without compound treatment) were set. The cells were cultured for 1 day in the 37° C. incubator with 5% CO2.
The cells were fixed with 4% paraformaldehyde, and then permeabilization was performed with 0.5% Triton X-100. After the plate was washed with DPBS, a hPIV specific antibody (1:2000 dilution) was added and incubated at 37° C. for 1.5 h. Then, a secondary antibody (1:500 dilution) was added and incubated at 37° C. for 1 hour. The secondary antibody was discarded, a TrueBlue solution was added, dyeing was performed for approximately 10 minutes; and the plate was washed with running water and then air-dried, and the number of spots in each well was counted by using a microplate imaging counter.
Raw data was used for calculating the antiviral activity of the samples, and a calculation formula was shown as follows.
% inhibition rate=100−(sample value-cell control average value)/(virus control average value-cell control average value)×100
Non-linear fitting analysis was performed on the inhibition rate of the sample by using GraphPad Prism (version 10), so as to calculate an EC50 value for the sample. A fitting formula was log (inhibitor) vs. response-Variable slope (four parameters).

Row | Molecule | CC50 at 1 day [1] | EC50 [2]
1 | CC[C@H](C)[C@H](NC(=O)[C@H](CCCCN)NC(=O)[C@H](CCCCN)NC(=O)[C@H](CC(C)C)NC(=O)[C@H](CO)NC(=O)[C@H](CCC(N)=O)NC(=O)[C@H](CC(N)=O)NC(=O)[C@@H](NC(=O)[C@H](CCCCN)NC(=O)[C@H](CCCCN)NC(=O)[C@H](CC(=O)O)NC(=O)[C@H](Cc1ccccc1)NC(=O)[C@H](CCC(=O)O)NC(=O)[C@@H](NC(=O)[C@H](CCCCN)NC(=O)[C@H](CCCCN)NC(=O)[C@H](CC(N)=O)NC(=O)[C@@H](NC(=O)[C@H](CC(C)C)NC(=O)[C@H](CCC(=O)O)NC(=O)[C@H](CC(=O)O)NC(=O)[C@H](CO)NC(C)=O)C(C)C)[C@@H](C)CC)[C@@H](C)CC)C(=O)N[C@@H](CCC(=O)O)C(=O)N[C@@H](CCC(=O)O)C(=O)N[C@@H](CO)C(=O)N[C@@H](CC(=O)O)C(=O)N[C@@H](CCCCN)C(=O)N[C@@H](CCCCN)C(=O)N[C@@H](CCCCN)C(=O)N[C@@H](CC(C)C)C(=O)N[C@@H](CCC(=O)O)C(=O)N[C@@H](C)C(=O)N[C@@H](C)C(=O)N[C@@H](C)C(=O)N[C@@H](CCCCN)C(=O)N[C@@H](CCCCN)C(N)=O [Compound 51] (Ac-SDELVNKKIEFDKKINQSLKKIEESDKKKLEAAAKK-NH2) | 3.2 µM | 18.8 nM
2 | CC[C@H](C)[C@H](NC(=O)[C@H](CCCCN)NC(=O)[C@H](CCCCN)NC(=O)[C@H](CC(C)C)NC(=O)[C@H](CO)NC(=O)[C@H](CCC(=O)O)NC(=O)[C@H](CCC(=O)O)NC(=O)[C@@H](NC(=O)[C@H](CCCCN)NC(=O)[C@H](CCCCN)NC(=O)[C@H](CC(N)=O)NC(=O)[C@@H](NC(=O)[C@H](CCC(=O)O)NC(=O)[C@H](CCC(=O)O)NC(=O)[C@@H](NC(=O)[C@H](CCCCN)NC(=O)[C@H](CCCCN)NC(=O)[C@H](CC(=O)O)NC(=O)[C@H](Cc1ccccc1)NC(=O)[C@H](CCC(=O)O)NC(=O)[C@H](CC(=O)O)NC(=O)[C@H](Cc1c[nH]c2ccccc12)NC(C)=O)[C@@H](C)CC)C(C)C)[C@@H](C)CC)C(=O)N[C@@H](CCC(=O)O)C(=O)N[C@@H](CCC(=O)O)C(=O)N[C@@H](CO)C(=O)N[C@@H](CC(=O)O)C(=O)N[C@@H](CCCCN)C(=O)N[C@@H](CCCCN)C(=O)N[C@@H](CC(C)C)C(=O)N[C@@H](CCC(=O)O)C(=O)N[C@@H](CCC(=O)O)C(=O)N[C@H](C(=O)N[C@@H](CC(N)=O)C(=O)N[C@@H](C)C(=O)N[C@@H](CCC(=O)O)C(=O)N[C@@H](C)C(=O)N[C@@H](C)C(=O)N[C@@H](C)C(=O)N[C@@H](CCCCN)C(=O)N[C@@H](CCCCNC(=O)CCC(=O)O[C@H]1CC[C@@]2(C)C(=CC[C@H]3[C@@H]4CC[C@H]([C@H](C)CCCC(C)C)[C@@]4(C)CC[C@@H]32)C1)C(N)=O)C(C)C [Compound 40] (Ac-WDEFDKKIEEVNKKIEESLKKIEESDKKLEEVNAEAAAKK(Succinyl(4-O-cholesteryl))-NH2) | 13.1 µM | 22.2 nM
3 | Ac-WDEFDASISQVNEKINQSLEEIRKSDELLHNVNALEAAAKK(Succinyl(4-O-cholesteryl))-NH2 [Compound 38] | 10.9 µM | 26.4 nM
4 | Ac-SLEQVNEKINQSLAFIRKSDEINQSDEEVNKSDELLEAAAKK-NH2 [Compound 50] | 32.6 µM | 34.8 nM
5 | CC[C@H](C)[C@H](NC(=O)[C@H](CO)NC(=O)[C@H](C)NC(=O)[C@H](CC(=O)O)NC(=O)[C@H](Cc1ccccc1)NC(=O)[C@H](CCC(=O)O)NC(=O)[C@H](CC(=O)O)NC(=O)[C@H](Cc1c[nH]c2ccccc12)NC(C)=O)C(=O)N[C@@H](CCC(=O)O)C(=O)N[C@@H](CCC(=O)O)C(=O)N[C@H](C(=O)N[C@@H](CC(N)=O)C(=O)N[C@@H](CCCNC(=N)N)C(=O)N[C@@H](CCCNC(=N)N)C(=O)N[C@H](C(=O)N[C@@H](CCC(=O)O)C(=O)N[C@@H](CCC(=O)O)C(=O)N[C@@H](CO)C(=O)N[C@@H](CC(C)C)C(=O)N[C@@H](CCCNC(=N)N)C(=O)N[C@@H](CCCNC(=N)N)C(=O)N[C@H](C(=O)N[C@@H](CCC(=O)O)C(=O)N[C@@H](CCC(=O)O)C(=O)N[C@@H](CO)C(=O)N[C@@H](CC(=O)O)C(=O)N[C@@H](CCCNC(=N)N)C(=O)N[C@@H](CCCNC(=N)N)C(=O)N[C@@H](CC(C)C)C(=O)N[C@@H](CCC(=O)O)C(=O)N[C@@H](CCC(=O)O)C(=O)N[C@H](C(=O)N[C@@H](CCC(=O)O)C(=O)N[C@@H](C)C(=O)N[C@@H](C)C(=O)N[C@@H](C)C(=O)N[C@@H](CCCCN)C(=O)N[C@@H](CCCCNC(=O)CCC(=O)O[C@H]1CC[C@@]2(C)C(=CC[C@H]3[C@@H]4CC[C@H]([C@H](C)CCCC(C)C)[C@@]4(C)CC[C@@H]32)C1)C(N)=O)C(C)C)[C@@H](C)CC)[C@@H](C)CC)C(C)C [Compound 43] (Ac-WDEFDASIEEVNRRIEESLRRIEESDRRLEEVEAAAKK(Succinyl(4-O-cholesteryl))-NH2) | 12.2 µM | 16.1 nM
6 | CC[C@H](C)[C@H](NC(=O)[C@H](CCCCN)NC(=O)[C@H](CCCCN)NC(=O)[C@H](CC(C)C)NC(=O)[C@H](CO)NC(=O)[C@H](CCC(=O)O)NC(=O)[C@H](CCC(=O)O)NC(=O)[C@@H](NC(=O)[C@H](CCCCN)NC(=O)[C@H](CCCCN)NC(=O)[C@H](CC(N)=O)NC(=O)[C@@H](NC(=O)[C@H](CCC(=O)O)NC(=O)[C@H](CCC(=O)O)NC(=O)[C@@H](NC(=O)[C@H](CCCCN)NC(=O)[C@H](CCCCN)NC(=O)[C@H](CC(=O)O)NC(=O)[C@H](Cc1ccccc1)NC(=O)[C@H](CCC(=O)O)NC(=O)[C@H](CC(=O)O)NC(C)=O)[C@@H](C)CC)C(C)C)[C@@H](C)CC)C(=O)N[C@@H](CCC(=O)O)C(=O)N[C@@H](CCC(=O)O)C(=O)N[C@@H](CO)C(=O)N[C@@H](CC(=O)O)C(=O)N[C@@H](CCCCN)C(=O)N[C@@H](CCCCN)C(=O)N[C@@H](CC(C)C)C(=O)N[C@@H](CCC(=O)O)C(=O)N[C@@H](CCC(=O)O)C(=O)N[C@H](C(=O)N[C@@H](CCC(=O)O)C(=O)N[C@@H](C)C(=O)N[C@@H](C)C(=O)N[C@@H](C)C(=O)N[C@@H](CCCCN)C(=O)N[C@@H](CCCCNC(=O)CCC(=O)OC1CCC2(C)C(=CCC3C2CCC2(C)C(C(C)CCCC(C)C)CCC32)C1)C(N)=O)C(C)C (some centres unmarked) [Compound 21] (Ac-DEFDKKIEEVNKKIEESLKKIEESDKKLEEVEAAAKK(X1)-NH2) | 18.3 µM | 21.3 nM
7 | CC[C@H](C)[C@H](NC(=O)[C@H](CCCCN)NC(=O)[C@H](CCCCN)NC(=O)[C@H](CC(C)C)NC(=O)[C@H](CO)NC(=O)[C@H](CCC(=O)O)NC(=O)[C@H](CCC(=O)O)NC(=O)[C@@H](NC(=O)[C@H](CCCCN)NC(=O)[C@H](CCCCN)NC(=O)[C@H](CC(N)=O)NC(=O)[C@@H](NC(=O)[C@H](CCC(=O)O)NC(=O)[C@H](CCC(=O)O)NC(=O)[C@@H](NC(=O)[C@H](CCCCN)NC(=O)[C@H](CCCCN)NC(=O)[C@H](CC(=O)O)NC(=O)[C@H](Cc1ccccc1)NC(=O)[C@H](CCC(=O)O)NC(=O)[C@H](CC(=O)O)NC(=O)[C@H](CO)NC(C)=O)[C@@H](C)CC)C(C)C)[C@@H](C)CC)C(=O)N[C@@H](CCC(=O)O)C(=O)N[C@@H](CCC(=O)O)C(=O)N[C@@H](CO)C(=O)N[C@@H](CC(=O)O)C(=O)N[C@@H](CCCCN)C(=O)N[C@@H](CCCCN)C(=O)N[C@@H](CC(C)C)C(=O)N[C@@H](CCC(=O)O)C(=O)N[C@@H](C)C(=O)N[C@@H](C)C(=O)N[C@@H](C)C(=O)N[C@@H](CCCCN)C(=O)N[C@@H](CCCCNC(=O)CCC(=O)O[C@H]1CC[C@@]2(C)C(=CC[C@H]3[C@@H]4CC[C@H]([C@H](C)CCCC(C)C)[C@@]4(C)CC[C@@H]32)C1)C(N)=O [Compound 16] (Ac-SDEFDKKIEEVNKKIEESLKKIEESDKKLEAAAKK(Succinyl(4-O-cholesteryl))-NH2) | 17.1 µM | 59 nM
